This is an account of results in publication PMC4296974 (Bioorganic & medicinal chemistry letters, 2014).

In test [1] the target is T1, rNTS2 (Rattus norvegicus, UniProt Q63384).
T1 sequence (Q63384 1-416): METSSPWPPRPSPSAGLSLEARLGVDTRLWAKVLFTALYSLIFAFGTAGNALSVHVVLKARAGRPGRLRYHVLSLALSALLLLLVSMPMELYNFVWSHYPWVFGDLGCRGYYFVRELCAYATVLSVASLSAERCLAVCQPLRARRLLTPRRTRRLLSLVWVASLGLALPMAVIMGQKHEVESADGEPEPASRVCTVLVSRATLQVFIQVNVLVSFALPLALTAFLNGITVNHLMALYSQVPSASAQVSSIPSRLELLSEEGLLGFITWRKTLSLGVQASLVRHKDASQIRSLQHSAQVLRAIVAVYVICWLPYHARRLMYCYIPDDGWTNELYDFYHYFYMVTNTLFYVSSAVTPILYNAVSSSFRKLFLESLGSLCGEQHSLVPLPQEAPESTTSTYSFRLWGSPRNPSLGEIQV
As to the kind of experiment: FLIPR calcium mobilization assay in CHO cell line stably expressing rNTS2. It is filed as cell-based. In general terms: Calcium assays in cells follow changes in intracellular calcium, usually with a dye or a luminescent sensor.

Test [2] has as its target T1, rNTS2. Conditions: Emax value is % of 4; cited from earlier work.
Test [3] deals with rNTS1 (Rattus norvegicus, UniProt P20789). Conditions: read-out: Binding Assay NTS1 Ki; [125I]NT, bound; cited from earlier work.
Test [4] concerns the target T1, rNTS2. The test is described as follows: [125I]NT competition binding assay at NTS2. Conditions: relative to 9.
For test [5], the target named is NTS1 (Rattus norvegicus, UniProt P20789). The test is described as follows: FLIPR calcium mobilization assay at NTS1. It is filed as cell-based. Conditions: 17: agonist and antagonist screen at 10 μM; 9, 14b, 16b: data not shown.
Chain of NTS1 (P20789 whole entry): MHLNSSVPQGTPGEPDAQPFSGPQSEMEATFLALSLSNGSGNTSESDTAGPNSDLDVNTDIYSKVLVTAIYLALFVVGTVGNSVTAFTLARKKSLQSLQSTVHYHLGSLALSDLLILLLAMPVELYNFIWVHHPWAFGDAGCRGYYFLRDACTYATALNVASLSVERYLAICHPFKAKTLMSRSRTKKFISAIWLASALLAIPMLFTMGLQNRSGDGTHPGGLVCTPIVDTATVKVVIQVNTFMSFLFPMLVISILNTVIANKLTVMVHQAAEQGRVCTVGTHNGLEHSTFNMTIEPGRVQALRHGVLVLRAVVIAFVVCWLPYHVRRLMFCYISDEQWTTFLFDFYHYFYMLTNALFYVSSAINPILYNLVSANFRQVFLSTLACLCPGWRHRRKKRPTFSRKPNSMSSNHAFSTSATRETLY

Chain of rNTS1 (P20789 whole entry): as above

Take `COc1cccc(OC)c1-c1cc(C(=O)NC2(C(=O)O)C3CC4CC(C3)CC2C4)nn1-c1ccc(C(=O)N(C)CCCN(C)C)cc1C(C)C` (centres unmarked) [Compound 4, reference compound]: in test [1] (CHO, read-out: FLIPR Assay NTS2 Emax), the Emax came out at 100 ± 5%.
As for `C[C@@H]1CN([C@H]2CC[C@](C#N)(c3ccc(F)cc3)CC2)CC[C@]1(C(=O)O)c1ccccc1` [Compound 5, levocabastine], the “FLIPR Assay NTS2 Emax” value in test [2] is on record as 16±3%. The Ki in test [3] is over 25 µM.
As for `COc1cccc(OC)c1-c1nc(C(=O)N[C@H](C(=O)O)C2CCCCC2)nc2ccc(Cl)cc12` [Compound 14b], the “Fold less active than NT in the NTS2 functional assay” value in test [1] (IC50 comparison with NT) worked out at 25 fold. For the same compound, in test [4], the “Fold weaker than 9 in NTS2 binding (Ki)” value was determined as 5 fold. The “Activity in the calcium mobilization assay at NTS1” value in test [5] is reported as “failed to show activity”.
In the case of `COc1cccc(OC)c1-c1nc(C(=O)NC2(C(=O)O)CCCCC2)nc2ccc(Cl)cc12` [Compound 16b], the “Fold lower activity than 9 in NTS2 FLIPR assay (EC50)” value in test [1] (relative to 9) is reported as “roughly 10 fold”. The “Fold weaker than 9 in NTS2 binding (Ki)” value in test [4] came out at 11 fold. For the same compound, the “Activity in the calcium mobilization assay at NTS1” value in test [5] is “failed to show activity”.
For the compound `O=C(O)c1cc(Nc2nc(-c3ccccc3)c3cc(Cl)ccc3n2)ccc1O` [Compound 17], the “Activity in the calcium mobilization assay at NTS1” value in test [5] is recorded as “devoid of activity”.
Regarding `COc1cccc(OC)c1-c1cc(C(=O)N[C@@H](CC(C)C)C(=O)O)nn1-c1ccc(F)cc1` [Compound 21, reference compound], the inhibition at 10 µM in test [1] (CHO, read-out: % inhibition of calcium release mediated by 4 at NTS2) is under 30%.

The term Emax denotes the greatest response seen or fitted, relative to the assay's reference. Usually Ki stands for a dissociation constant, usually derived from enzyme kinetics or from competition with a known ligand. One may read the inhibition as the percentage by which the read-out fell short of the control.
